Laboratory results taken from patent US8198274B2, “Substituted indolyl and indazolyl derivatives and uses thereof” (Roche Palo Alto LLC, priority 2008, dated 2012).

What was measured:
[1] = molecular target: T1, human dopamine transporter (hDAT) (Homo sapiens, UniProt Q01959); assay: Screening for compounds active at human dopamine transporter (hDAT), scintillation proximity assay, competition with [3H]-Vanoxerine; format: binding; conditions: HEK-293 cells, SPA
T1 construct: expressed in transfected cells
T1 sequence (Q01959 whole entry): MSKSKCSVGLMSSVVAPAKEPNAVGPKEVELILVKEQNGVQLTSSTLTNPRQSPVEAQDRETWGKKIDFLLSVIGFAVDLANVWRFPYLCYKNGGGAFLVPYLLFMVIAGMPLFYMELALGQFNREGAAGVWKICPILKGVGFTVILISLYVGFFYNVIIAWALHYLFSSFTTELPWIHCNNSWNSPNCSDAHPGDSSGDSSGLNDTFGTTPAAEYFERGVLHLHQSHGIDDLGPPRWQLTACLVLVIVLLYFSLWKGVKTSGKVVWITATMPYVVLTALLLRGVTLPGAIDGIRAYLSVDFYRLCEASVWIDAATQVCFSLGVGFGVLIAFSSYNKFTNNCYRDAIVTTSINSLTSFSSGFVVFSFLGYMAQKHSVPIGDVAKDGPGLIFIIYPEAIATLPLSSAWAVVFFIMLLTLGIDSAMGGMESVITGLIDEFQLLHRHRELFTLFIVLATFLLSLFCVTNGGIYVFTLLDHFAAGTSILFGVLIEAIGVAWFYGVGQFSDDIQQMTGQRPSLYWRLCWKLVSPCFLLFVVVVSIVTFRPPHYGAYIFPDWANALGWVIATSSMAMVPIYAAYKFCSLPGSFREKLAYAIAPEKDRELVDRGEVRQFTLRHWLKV
Experimental: This assay was used to determine the affinity of ligands for the dopamine transporter by competition with [^3H]-Vanoxerine.
HEK-293 cells (Tatsumi et al., Eur. J. Pharmacol. 1997, 30, 249-258) stably expressing recombinant hDAT were maintained with media (DMEM hi glucose with 10% FBS, 300 μg/ml G418 and 2 mM L-Glutamine) and incubated at 37° C. with 5% CO2. Cells were plated four hours prior to experiment by placing approximately 30,000 cells per well (in PBS) on white, opaque Cell-Tak coated 96 well plates. Extra buffer was apriated from the cell plates using an ELx405 plate washer.
^3[H] vanoxerine (GBR 12909) radioligand, specific activity approximately 59 Ci/mmol, stock concentration, 400 nM, and 50 mM Tris-HCl, 300 mM NaCl, (pH 7.4) buffers were used for Scintillation Proximity Assay IC50/Ki determination. […]
The % inhibition was calculated for each compound tested [(Compound CPM at maximum concentration-Non-Specific CPM)/Total CPM*100]. […]
[formula] where max=total binding, min=non specific binding, x=concentration (M) of the tested compound and n=Hill slope. The inhibition dissociation constant (Ki) of each compound was determined according to the method of Cheng-Prusoff and then converted into negative logarithm (pKi) of the Ki.

[2] = molecular target: T2, human norepinephrine transporter (hNET) (Homo sapiens, UniProt P23975); assay: Screening for compounds active at human norepinephrine transporter (hNET), scintillation proximity assay, competition with [3H]-Nisoxetine; format: binding; conditions: membranes of HEK-293 cells, SPA
T2 construct: expressed in transfected cells
T2 sequence (P23975 whole entry): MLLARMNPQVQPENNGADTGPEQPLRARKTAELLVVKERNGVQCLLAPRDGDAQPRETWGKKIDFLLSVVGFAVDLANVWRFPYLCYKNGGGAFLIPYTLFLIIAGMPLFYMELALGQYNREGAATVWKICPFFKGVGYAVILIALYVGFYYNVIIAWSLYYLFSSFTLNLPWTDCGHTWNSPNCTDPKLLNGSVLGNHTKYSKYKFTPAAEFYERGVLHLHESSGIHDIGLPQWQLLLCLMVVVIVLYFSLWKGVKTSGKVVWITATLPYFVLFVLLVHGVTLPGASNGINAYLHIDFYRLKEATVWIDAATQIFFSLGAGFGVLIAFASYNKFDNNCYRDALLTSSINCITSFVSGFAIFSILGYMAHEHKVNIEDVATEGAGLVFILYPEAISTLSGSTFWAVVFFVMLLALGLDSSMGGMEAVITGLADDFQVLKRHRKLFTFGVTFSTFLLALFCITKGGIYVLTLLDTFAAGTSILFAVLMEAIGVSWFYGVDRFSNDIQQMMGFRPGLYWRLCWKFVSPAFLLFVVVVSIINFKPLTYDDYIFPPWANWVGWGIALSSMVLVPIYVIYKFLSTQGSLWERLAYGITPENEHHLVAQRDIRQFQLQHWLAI
Experimental: This assay was used to determine the affinity of ligands for the hNET transporter by competition with [^3H]-Nisoxetine. As in the hSERT assay of the above example, receptor-containing membranes were pre-coupled to the SPA beads and the binding of the appropriate radioligand to the transporter was measured. The light emission was proportional to the amount of bound radioligand, with unbound radioligand producing no signal.
HEK-293 cells (Tatsumi et al., Eur. J. Pharmacol. 1997, 30, 249-258) stably expressing recombinant hNET (Clone: HEK-hNET #2) were maintained with media (DMEM hi glucose with 10% FBS, 300 μg/ml G418 and 2 mM L-Glutamine) and incubated at 37° C. with 5% CO2. Cells were released from culture flasks using PBS for 1-2 minutes. […]
Cell membranes were prepared using a membrane preparation buffer of 50 mM TRIS (pH 7.4). […] After a second centrifugation, the pellet was re-homogenized and brought to a final volume determined during the assay. […]
^3[H] […] The mixtures were allowed to stand at room temperature for one hour, and were then counted on a Packard TopCount LCS, a generic SPA counting protocol settings (Energy Range: Low, Efficiency Mode: Normal, Region A: 1.50-35.00, Region B: 1.50-256.00, Count Time (min.): 0.40, Background Subtract: none, Half-Life Correction: no, Quench Indicator: tSIS, Platemap blank subtraction: No, Cross talk reduction: Off). […]

`CNCc1ccccc1Cc1ccc2[nH]c(C(N)=O)cc2c1` [Compound 40, 5-(2-Methylaminomethyl-benzyl)-1H-indole-2-carboxylic acid amide] was tested, and the Ki [1] was ~5.01 nM and the Ki [2] was ~3.98 nM.
